Data reported in patent US9897607B2, “Methods, kits, and systems for treatment of metastatic papillary thyroid cancer” (The Governors of the University of Alberta, priority 2012, dated 2018).
Entries after “also recorded” stand apart in the source; their conditions may differ.

Columns and labels:
TPC-1 cell line [1] = assay: Cell viability (MTS assay), TPC-1; format: cell-based, human; conditions: small molecule inhibitors Ly294002, U0126, 16 hours
Experimental: (§1) As previously described, Cytoselect™ 96-well cell invasion assay kit was used (Cell Biolabs, San Diego, Calif., USA) to assess cell invasiveness according to the manufacturer's protocol.^46 Briefly, TPC-1, BCPAP and 8305C after transfected with either PDGFRα siRNA or scramble siRNA, 10000 cells were starved overnight and added to the inserts, PDGF-BB was added to some wells at the concentration of 25 ng/mL, PDGF-BB was added 1 h later for inhibitors, sunitinib (0.2 umol/L), Ly294002 (10 umol/L) and (U0126) 2 umol/L, cells were seeded into the insert plate for 16 hours, the invasive cells passed through basement membrane layer to the bottom and dissociated from membrane by the addition of cells detachment buffer, the invasive cells were lysed and followed by quantification using CyQuant GR fluorescent Dye. For cell viability analysis 10000 cells were seeded per well and cultured for 16 hours. MTS assay (Promega, Madison, USA) was then performed in 4 replicates followed manufacturer's instructions. PTC cell lines transfected with PDGFR specific siRNA or scrambled control were plated at a density of 10,000 or 20,000/ml and cultured for 5 days. Cell counts were done on days 2, 3 and 5 using trypan blue (Sigma-Aldrich, Oakville, Canada) and results expressed as total number of viable cells. […] The absorbance was recorded by a BioRad spectrophotometer at day 5 of cell culture.

8305C cell line = assay: Cytoselect cell invasion assay, 8305C; format: cell-based, human
Experimental: (§2) As previously described, Cytoselect™ 96-well cell invasion assay kit was used (Cell Biolabs, San Diego, Calif., USA) to assess cell invasiveness according to the manufacturer's protocol.^46 Briefly, TPC-1, BCPAP and 8305C after transfected with either PDGFRα siRNA or scramble siRNA, 10000 cells were starved overnight and added to the inserts, PDGF-BB was added to some wells at the concentration of 25 ng/mL, PDGF-BB was added 1 h later for inhibitors, sunitinib (0.2 umol/L), Ly294002 (10 umol/L) and (U0126) 2 umol/L, cells were seeded into the insert plate for 16 hours, the invasive cells passed through basement membrane layer to the bottom and dissociated from membrane by the addition of cells detachment buffer, the invasive cells were lysed and followed by quantification using CyQuant GR fluorescent Dye. For cell viability analysis 10000 cells were seeded per well and cultured for 16 hours. MTS assay (Promega, Madison, USA) was then performed in 4 replicates followed manufacturer's instructions. PTC cell lines transfected with PDGFR specific siRNA or scrambled control were plated at a density of 10,000 or 20,000/ml and cultured for 5 days. Cell counts were done on days 2, 3 and 5 using trypan blue (Sigma-Aldrich, Oakville, Canada) and results expressed as total number of viable cells. MTS assay was done in 7 replicates as per manufacturer's instructions. The absorbance was recorded by a BioRad spectrophotometer at day 5 of cell culture.

TPC-1 cell line [2] = assay: Cytoselect cell invasion assay, TPC-1; format: cell-based, human
Experimental: as §2

KTC-1 cell line = assay: Cytoselect cell invasion assay, KTC-1; format: cell-based, human; conditions: KTC-1 (neither subunit); also increasing levels or longer stimulation
BCPAP cell line = assay: Cytoselect cell invasion assay, BCPAP; format: cell-based, human
Experimental: as §1

[3] = system: PDGFR-α (phospho-PDGFR), PI3K/Akt and MAPK/ERK pathways; assay: Western blot of primary cell culture from metastatic papillary thyroid cancer lymph node, PDGF-BB stimulation; format: cell-based, human
Experimental: (§3) Primary cell culture and experimental cell lines were maintained in RPMI 1640 media supplemented with 10% FBS. The cells were seeded in a 100-mm culture dish and were grown in a humidified 5% CO2 incubator. For PDGF-BB stimulation (25 ng/ml), cells were grown to about 80% confluence and incubated in serum-free medium overnight prior to each experiment. MAPK/ERK inhibitors U0126 and PD98059 were purchased from Calbiochem (Toronto, Ontario, Canada). PI3K/Akt inhibitor ly294002 was purchased from Cell Signaling Technology (Danvers, Mass., USA). Cells that were treated with inhibitors were given varying concentrations: U0126; 2 umol/L and 10 umol/L; Ly294002 10 umol/L and 25 umol/L; Sunitinib 0.25 umol/L. In all cases, unless otherwise indicated the inhibitors were given to cells and 60 minutes later the PDGF-BB was added to the cultures followed by Western blot analysis.
(§4) Cells were lysed in RIPA buffer [150 mM NaCl, 100 mM Tris (pH 8.0), 1% Triton X-100, 1% deoxycholic acid, 0.1% SDS, 5 mM EDTA, and 10 mM NaF] supplemented with 1 mM sodium vanadate, 2 mM leupeptin, 2 mM aprotinin, 1 mM phenylmethylsulfonyl fluoride (PMSF), 1 mM DTT, 2 mM pepstatin, and 1:100 protease inhibitor cocktail set III on ice. After centrifugation at 4° C. at 18,000 rpf for 15 min, the supernatant was harvested as the total cellular protein extracts and stored at −80° C. The protein concentration was determined using Bio-Rad protein assay reagent (Richmond, Va., USA). Running samples were prepared by adding a sample reducing agent and SDS sample buffer, incubating at 98° C. for 5 min. Aliquots of protein extract samples were separated by SDS-polyacrylamide gel electrophoresis (SDS-PAGE) and transferred to nitrocellulose membrane. Membranes were blocked with 5% nonfat dry milk in 1×TBS containing 0.05% Tween-20 for 60 min, followed by incubation with primary antibodies 4° C. overnight. Protein bands were detected by incubation with horseradish peroxidase-conjugated antibodies (Pierce Biotechnology, Rockford, Ill., USA) and visualized with SuperSignal West Pico chemiluminescence substrate (Thermo Scientific, Rockford, Ill., USA).

[4] = system: PDGFR-α/β, MAPK/ERK and PI3K/Akt pathways in TPC-1 cells; assay: Western blot of PDGFR activation and MAPK/ERK, PI3K/Akt signalling, TPC-1; format: cell-based, human
Experimental: as §3, §4

[5] = system: PDGFR-α/β, MAPK/ERK and PI3K/Akt pathways in 8305C cells; assay: Western blot of PDGFR activation and MAPK/ERK, PI3K/Akt signalling, 8305C; format: cell-based, human
Experimental: as §3, §4

TPC-1-derived cell lines = assay: Mice xenograft model with shRNA TPC-1-derived cell lines; format: in vivo; conditions: mice inoculated with cell lines in Matrigel; 20 days after inoculation; versus other groups
Experimental: To selectively and stably silence the expression of the PDGFR-alpha and-beta receptors in the TPC-1, BCPAP and 8305C cell lines we used the HuSH-29 shRNA Vector system (HuSH-29 shRNA Retroviral Vector Systems; OriGene Technologies, Inc.). Briefly, to silence the expression of the PDGFR-alpha receptor PTC cells were transduced with the pRS shRNA retrovirus system (Puro+) followed by selection in puromycin (2.5 ug/mL). Resistant cells were assessed by western blot to select the sequences that produced the higest levels of protein expression knock-down. The sequences used for these studies were […] (SEQ ID NO: 1) for the TPC-1 cell line and […] (SEQ ID NO: 2) for the 8305C cell line. To selectively knock down the PDGFR-beta receptor were transduced with the pGFP-BR-S shRNA retrovirus system (BSD+) followed by selection in blasticidin (500 ug/mL). Resistant cells were again assessed by western blot to select the sequences that produced the higest levels of protein expression knock-down. […]
The experiments of FIG. 13 depict knock down of PDGFR-alpha or -beta subunit results in opposing effects in tumour formation on a mice xenograft model. […] The average tumour volume (top panel) and tumour weight (bottom panel) was much higher for mice given cell lines expressing only PDGFR-alpha and statistical significance between groups were calculated 20 days after inoculation.

[6] = system: TPC-1, 8305C and BCPAP cell lines; assay: Cell growth of PTC cell lines with sunitinib (FIG. 6); format: cell-based, human; conditions: all of the cell lines; absence of PDGF-BB stimulation
thyroid cancer = thyroid cancer trials; cited from earlier work
[7] = primary culture, PDGF-BB 25 ng/ml

For `O=c1cc(N2CCOCC2)oc2c(-c3ccccc3)cccc12` [Ly294002], the cell viability (TPC-1 cell line [1]) was “not significantly altered”.
With “PDGF-BB: PDGFR ligand known to bind all subunits of PDGFR, purchased from GIBCO” the “invasive potential on PDGF-BB stimulation” value (8305C cell line; 8305C (PDGFR-α only), PDGF-BB 25 ng/mL) was “significant increase in invasive potential; also recorded: increased invasive potential”, the “invasive potential on PDGF-BB stimulation” value (TPC-1 cell line [2]; TPC-1 (PDGFR-α and -β), PDGF-BB 25 ng/mL) was “significant increase in invasive potential; also recorded: increased invasive potential” and the “invasive potential on PDGF-BB stimulation” value (KTC-1 cell line) was “did not exhibit any change in invasive potential”. The “invasive potential on PDGF-BB stimulation” value (BCPAP cell line; BCPAP (PDGFR-β only), PDGF-BB 25 ng/mL) was “did not exhibit any change in invasive potential”, the “phospho-Akt (PI3K/Akt pathway)” value [3, 7] was “significant increases” and the “phospho-ERK (MAPK/ERK pathway)” value [3, 7] was “small increase”. For the same compound, the phospho-PDGFR [3, 7] was “activated PDGFR-α”, the “phospho-PDGFR-α/β, phospho-Akt, and phospho-ERK” value ([4]; TPC-1, PDGF-BB 25 ng/ml) was “strong up-regulation” and the “time of return of levels to baseline” value ([4]; TPC-1, PDGF-BB stimulation) was about 60 min. For the same compound, the “time to increases in phospho-PDGFR-α/β, phospho-Akt and phospho-ERK” value ([4]; TPC-1, PDGF-BB stimulation) was at most 5 min, the “time to maximal activation of both pathways” value ([4]; TPC-1, PDGF-BB stimulation) was at most 15 min and the phospho-ERK ([5]; 8305C (BRAF mutation, MAPK/ERK constitutively activated), PDGF-BB) was “small increase”. The “phospho-PDGFR-α/β, phospho-Akt, and phospho-ERK” value ([5]; 8305C, PDGF-BB 25 ng/ml) was “strong up-regulation”.
For “TGCCTCCGACGAGATCTATGAGATCATGC (SEQ ID NO: 3) (listed as Homo sapiens) [sh PDGFR-beta, shRNA (pGFP-BR-S retrovirus system) knocking down PDGFR-beta in TPC-1; cells then express only PDGFR-alpha]”, the average tumour volume (TPC-1-derived cell lines) was “much higher” and the tumour weight (TPC-1-derived cell lines) was “much higher”.
For `N#CC(=C(/N)Sc1ccccc1N)/C(C#N)=C(\N)Sc1ccccc1N` [U0126], the “PDGF-BB mediated increases in invasive potential” value (TPC-1 cell line [2]; TPC-1, U0126 2 umol/L (MAPK/ERK blockade), PDGF-BB 25 ng/mL 1 h later, 16 hours) was “sufficient to abrogate increases in invasive potential; also recorded: prevents PDGF-BB mediated increases in invasive potential”, the “MAPK/ERK pathway blockade (Western blot)” value ([4]; PDGF-BB stimulated TPC-1 cells, U0126 2 umol/L and 10 umol/L) was “decreased protein expression; also recorded: nearly complete” and the cell viability (TPC-1 cell line [1]) was “not significantly altered”.
In the case of `CCN(CC)CCNC(=O)c1c(C)[nH]c(/C=C2\C(=O)Nc3ccc(F)cc32)c1C` [sunitinib, Sunitinib malate], the “change in invasive potential with PDGF-BB stimulation” value (8305C cell line; 8305C, sunitinib 0.2 umol/L, PDGF-BB 25 ng/mL added 1 h later, 16 hours) is reported as “virtually completely abates any change in invasive potential; also recorded: abated any change in invasive potential”, the “invasive potential without PDGF-BB stimulation” value (8305C cell line; 8305C, sunitinib 0.2 umol/L, no PDGF-BB) is reported as “does not alter invasive potential” and the “change in invasive potential with PDGF-BB stimulation” value (TPC-1 cell line [2]; TPC-1, sunitinib 0.2 umol/L, PDGF-BB 25 ng/mL added 1 h later, 16 hours) is reported as “virtually completely abates any change in invasive potential; also recorded: abated any change in invasive potential”. The “invasive potential without PDGF-BB stimulation” value (TPC-1 cell line [2]; TPC-1, sunitinib 0.2 umol/L, no PDGF-BB) was “does not alter invasive potential”, the “effect on cell growth” value [6] was “not significant” and the “invasive potential without PDGF-BB stimulation” value (BCPAP cell line; BCPAP, sunitinib 0.2 umol/L, no PDGF-BB) was “does not alter invasive potential”. For the same compound, the “activation of PDGFR (phospho-PDGFR) and downstream PI3K/Akt and MAPK/ERK pathways by PDGF-BB” value ([3]; sunitinib 0.25 umol/L given 60 minutes before PDGF-BB 25 ng/ml, semi-quantitative Western blot) was “can be blocked; also recorded: completed blocked”, the “activation of PDGFR-α/β (phospho-PDGFR)” value ([4]; TPC-1, sunitinib 0.25 umol/L, PDGF-BB 25 ng/ml 60 minutes later) was “completely disrupts PDGFR activation; also recorded: completely blocks activation of PDGFR-α/β” and the “activity in PI3K/Akt and MAPK/ERK pathways” value ([4]; TPC-1, sunitinib 0.25 umol/L, PDGF-BB stimulated) was “significant decreased activity”. The outcomes (thyroid cancer) was “favourable outcomes”, the side-effect profiles (thyroid cancer) was “acceptable side-effect profiles” and the “activation of PDGFR-α/β (phospho-PDGFR)” value ([5]; 8305C, sunitinib 0.25 umol/L, PDGF-BB 25 ng/ml 60 minutes later) was “completely disrupts PDGFR activation; also recorded: completely blocks activation of PDGFR-α/β”. The “activity in PI3K/Akt and MAPK/ERK pathways” value ([5]; 8305C, sunitinib 0.25 umol/L, PDGF-BB stimulated) was “significant decreased activity”.
In the case of `CNC(=O)c1cc(Oc2ccc(NC(=O)Nc3ccc(Cl)c(C(F)(F)F)c3)cc2)ccn1` [Sorafenib, sorafenib], the outcomes (thyroid cancer) is given as “favourable outcomes” and the side-effect profiles (thyroid cancer) is given as “acceptable side-effect profiles”.
